Experiments:
Cyp7a1 = assay: Acute mouse PK/PD: Cyp7a1 gene expression in liver; assay type: in vivo; conditions: for Cyp7a1 (fold change@ 6 h relative to Vehicle): mouse PD
Experimental: (§1) In Vivo Testing Example: Acute Mouse PK/PD
(§2) Male, C57BL6/NTac mice, weighing 25-28 g, are purchased from Taconic Labs (Hudson, N.Y.) and maintained on Teklad Global 18% Protein Rodent Diet (Harlan Laboratories). After 1 week acclimation, mice are sorted into groups based upon body weight. Mice are administered a single oral dose of vehicle or experimental compound. Systemic compound exposure is evaluated in plasma derived from blood collected via the submandibular vein at 1 hour post-dose, and at study termination (6 h). At study termination, the animals are euthanized and rapidly dissected. The medial lobe of the liver is divided, with one half being homogenized and analyzed for compound exposure, and the other half saved in RNAlater (Thermo-Fisher Scientific). The ileum is also dissected and preserved in RNAlater. Tissue samples in RNAlater are homogenized with MP Biomedicals' beads. RNA is extracted using the MagMax-96 Total RNA Isolation kit (Thermo-Fisher Scientific) according to the manufacturer's protocol. RNA Concentration is determined with the Nano-Drop 8000 Spectrophotometer (Thermo Fisher). Reverse transcription is done with Invitrogen's SuperScript® VILO cDNA Synthesis Kit according to the manufacturer's protocol. Real time PCR is done with Applied Biosystems' Taqman PCR master mixture according to the manufacturer's protocol. All primers are purchased from Thermo-Fisher Scientific. Mouse genes analyzed include Nr0b2 (which encodes the small heterodimer partner, SHP), Abcb11 (which encodes the bile salt excretion pump, BSEP), Cyp7a1, & Cyp8b1 in liver, and Fgf15, Fabp6 (which encodes ileal bile acid binding protein, I-BABP), Slc51a (which encodes organic solute transporter alpha subunit, OSTA), and Slc51b (which encodes organic solute transporter beta subunit, OSTB) in the ileum. The statistical significant changes in FGF15 gene expression are expressed as fold increase and CYP7A1 expression as a percent reduction relative to vehicle control.

Fgf15 = assay: Acute mouse PK/PD: Fgf15 gene expression in ileum; assay type: in vivo; conditions: for Fgf15 (fold change@ 6 h relative to Vehicle): mouse PD
Experimental: as §1, §2

FXR [1] = target: T1, FXR (Homo sapiens (Human), UniProt Q96RI1); assay: FXR EC50 (FXR agonist activity reported with each example); assay type: cell-based
FXR [2] = target: T1, FXR; assay: transient human FXR/Gal4-luciferase reporter assay; assay type: cell-based; conditions: Gal4-hFXR LBD fusion in HEK293 reporter cells; relative to 8 μM GW-4064
Outline: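 HEK293 cells stably carrying a 5×Gal4-response-element firefly luciferase reporter, transiently transfected with a Gal4 DNA-binding domain/human FXR ligand-binding domain fusion. Compounds incubated overnight at 37° C, with luminescence read after Steady-Glo. DMSO background subtracted; response expressed as % of the 8 μM GW-4064 control.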

Cypa7a1, Ffg15 = assay: Mouse in vivo (Cyp7a1 / Fgf15 response); conditions: 3 mg/kg, @ 6 h
[3] = 6-week trial, T2DM patients with NAFLD; cited from earlier work
[4] = 72-week trial, patients with NASH, liver biopsies; cited from earlier work

T1 sequence (Q96RI1 262-486): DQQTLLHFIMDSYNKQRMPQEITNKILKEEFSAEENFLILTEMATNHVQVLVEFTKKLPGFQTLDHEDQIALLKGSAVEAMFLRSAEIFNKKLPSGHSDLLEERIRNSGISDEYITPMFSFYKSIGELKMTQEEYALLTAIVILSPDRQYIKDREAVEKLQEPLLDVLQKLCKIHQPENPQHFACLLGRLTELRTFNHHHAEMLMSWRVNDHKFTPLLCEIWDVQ

| SMILES | EC50 (FXR [2]) [nM] | other results |
| --- | --- | --- |
| O=C(O)c1cccc(-c2noc(C34CCC(OCc5c(-c6c(Cl)cccc6Cl)noc5C5CC5)(CC3)CC4)n2)c1 [Example 27] | – | Cyp7a1 (fold change@ 6 h relative to Vehicle) (Cyp7a1; dose 30 mg/kg): 0.10 fold change; Fgf15 (fold change@ 6 h relative to Vehicle) (Fgf15; dose 30 mg/kg): 2.8 fold change |
| O=C(O)c1cc(C(F)(F)F)c2cc(OCC34CCC(OCc5c(-c6c(Cl)cncc6Cl)noc5C5CC5)(CC3)CC4)ccc2n1 [Example 101, 6-((4-((5-cyclopropyl-3-(3,5-dichloropyridin-4-yl)isoxazol-4-yl)methoxy)bicyclo[2.2.2]octan-1-yl)methoxy)-4-(trifluoromethyl)quinoline-2-carboxylic acid] | – | Cyp7a1 (fold change@ 6 h relative to Vehicle) (Cyp7a1; dose 3 mg/kg): 0.06 fold change; Fgf15 (fold change@ 6 h relative to Vehicle) (Fgf15; dose 3 mg/kg): 21 fold change; EC50 (FXR [1]): 8 nM |
| CN1CCN(c2nc(C(=O)O)cc3ccc(/C=C/C45CCC(OCc6c(-c7c(Cl)cncc7Cl)noc6C6CC6)(CC4)CC5)cc23)CC1 [Example 629] | 35 | Mouse in vivo Cyp7a1 (printed Cypa7a1), change relative to vehicle (Cyp7a1; mouse, 3 mg/kg single oral dose, @ 6 h, liver): −97%; Mouse in vivo Fgf15 (printed Ffg15), fold increase relative to vehicle (Fgf15; mouse, 3 mg/kg single oral dose, @ 6 h, ileum): +7.1 x |
| CN1CCN(c2nc(C(=O)O)cc3ccc(C#CC45CCC(OCc6c(-c7c(Cl)cncc7Cl)noc6C6CC6)(CC4)CC5)cc23)CC1 [Example 519, 7-((4-((5-cyclopropyl-3-(3,5-dichloropyridin-4-yl)isoxazol-4-yl)methoxy)bicyclo[2.2.2]octan-1-yl)ethynyl)-1-(4-methylpiperazin-1-yl)isoquinoline-3-carboxylic acid] | – | Cypa7a1 (Cypa7a1, Ffg15): −92%; Ffg15 (Cypa7a1, Ffg15): +1.4 ×; EC50 (FXR [1]): 28 nM |
| CC[C@H]1[C@@H](O)[C@@H]2[C@H](CC[C@]3(C)[C@@H]([C@H](C)CCC(=O)O)CC[C@@H]23)[C@@]2(C)CC[C@@H](O)C[C@@H]12 [OCA, obeticholic acid] | – | body weight [3]: reduced; insulin sensitivity [3]: statistically significantly improved; hepatic steatosis, lobular inflammation, hepatocyte ballooning, and fibrosis [4]: statistically significantly improved |
| O=C(O)c1cc(OCC23CCC(OCc4c(-c5c(Cl)cncc5Cl)noc4C4CC4)(CC2)CC3)nn1C1CC1 [Example 539] | 25 | – |
| O=C(O)Cc1ccc(C#CC23CCC(OCc4c(-c5c(Cl)cncc5Cl)noc4C4CC4)(CC2)CC3)cc1F [Example 567] | 121 | – |
| O=C(O)COc1ccc(C#CC23CCC(OCc4c(-c5c(Cl)cncc5Cl)noc4C4CC4)(CC2)CC3)c(F)c1 [Example 554] | 3160 | – |
| Cc1nc(NCC23CCC(OCc4c(-c5c(Cl)cccc5Cl)noc4C4CC4)(CC2)CC3)sc1CC(=O)O [Example 577] | 860 | – |
| O=C(O)c1cc(OCC23CCC(OCc4c(-c5c(Cl)cncc5Cl)noc4C4CC4)(CC2)CC3)nn1CC1CC1 [Example 528] | 16 | – |
| O=C(O)Cc1ccc(/C=C/C23CCC(OCc4c(-c5c(Cl)cncc5Cl)noc4C4CC4)(CC2)CC3)c(C(F)(F)F)c1 [Example 621] | 43 | – |
| CCOc1nc(C(=O)O)cc2ccc(OCC34CCC(OCc5c(-c6c(Cl)cncc6Cl)noc5C5CC5)(CC3)CC4)cc12 [Example 575] | 18 | – |
| O=C(O)Cc1ccc(/C=C/C23CCC(OCc4c(-c5c(Cl)cncc5Cl)noc4C4CC4)(CC2)CC3)cc1F [Example 594] | 153 | – |
| O=C(O)c1cc2ccc(Cl)cc2c(C#CC23CCC(OCc4c(-c5c(Cl)cncc5Cl)noc4C4CC4)(CC2)CC3)n1 [Example 547] | 251 | – |
| CN1CCN(c2ncc(C(=O)O)cc2C#CC23CCC(OCc4c(-c5c(Cl)cncc5Cl)noc4C4CC4)(CC2)CC3)CC1 [Example 568] | 524 | – |
| O=C(O)CCc1ccc(/C=C/C23CCC(OCc4c(-c5c(Cl)cncc5Cl)noc4C4CC4)(CC2)CC3)cc1 [Example 606] | 160 | – |
| O=C(O)Cc1ccc(/C=C/C23CCC(OCc4c(-c5c(Cl)cncc5Cl)noc4C4CC4)(CC2)CC3)cc1 [Example 587] | 173 | – |
| O=C(O)c1cc2ccc(C#CC34CCC(OCc5c(-c6c(Cl)cncc6Cl)noc5C5CC5)(CC3)CC4)cc2c(N2CC(F)C2)n1 [Example 553] | 12 | – |

From patent US10730863B2, “Bridged bicyclic compounds as farnesoid X receptor modulators” (BRISTOL-MYERS SQUIBB COMPANY, priority 2017, dated 2020)
